Assay results from article PMC6667648 (Frontiers in Microbiology, 2019).
In brackets after ≈: the same amount, converted by molar mass. Where a SMILES comes first, the peptide text is derived from it. Bridges are numbered along the chain shown (N, C = ends).

Experiments:
[1] = tested on: K. pneumonia ATCC 10031; assay: microbe, parasite or virus in culture; type: cell-based, Klebsiella pneumoniae; settings: ATCC 10031, 24 h
How it was run: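 Readout is optical density at 600 nm, taken across four replicate wells for each compound concentration. Cultures were started from an individual colony and incubated overnight at 37°C in warmed trypticase soy broth.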

[2] = tested on: MRSA 6313; assay: microbe, parasite or virus in culture; type: cell-based, Staphylococcus aureus; settings: MRSA 6313; 24-h incubation; mean of 3 replicates from 2 independent experiments
Method: (§1) Strains were obtained from American Type Culture Collection (ATCC, Manassas, VA) or the clinical isolate collection at Trideum Biosciences (Frederick, MD, USA). Bioluminescence strains of P. aeruginosa 19660, transfected with the Xen5 luciferase gene, and S. aureus ATCC® 49525™ (Wright), transfected with the Xen36 luciferase gene, were obtained from Perkin Elmer (Hopkinton, MA).
(§2) A single colony was aseptically picked from an agar overlay and released in 25–30 mL of pre-warmed trypticase soy broth in a culture flask. Each culture was incubated overnight in a 37°C incubator. […] Pathogen growth was measured by absorbance at 600 nm. Four replicas were included for each test agent concentration. […]

[3] = tested on: MRSA 6381; assay: microbe, parasite or virus in culture; type: cell-based, Staphylococcus aureus; settings: MRSA 6381; 24-h incubation; mean of 3 replicates from 2 independent experiments
Method: as §1, §2

[4] = tested on: MRSA ATCC 33592; assay: microbe, parasite or virus in culture; type: cell-based, Staphylococcus aureus; settings: MRSA ATCC 33592; 24-h incubation; mean of 3 replicates from 2 independent experiments
Method: as §1, §2

[5] = tested on: S. aureus 6061; assay: microbe, parasite or virus in culture; type: cell-based, Staphylococcus aureus; settings: 6061, 24 h
Method: as §1, §2

[6] = tested on: S. aureus B-767; assay: microbe, parasite or virus in culture; type: cell-based, Staphylococcus aureus; settings: B-767, 24 h
Method: as §1, §2

[7] = tested on: human HaCaT keratinocytes; type: cell-based; settings: 256 μg/mL
Method: Non-invasive real-time evaluation of viability, mammalian, and bacterial cells, was performed using bioluminescent human keratinocytes (HaCaT, AddexBio, San Diego, CA) and murine L929 fibroblast cells (ATCC, Manassas, VA). The bioluminescent variants were constructed by transfection with a luciferase gene (RediFect Red-Fluc-Puromycin, Catalog #CL596002) (Hamblin et al., [2003]). […] Each concentration was performed in triplicate. Bioluminescence imaging was performed at pre-specified times (0, 15, and 30 min and 1, 3, 5, 8, and 24 h) and compared to concurrently run vehicle-controls. The 96-well plate was positioned on the stage (12.5-cm field of view) within the in vivo Imaging System (IVIS) imaging system (Caliper Life Sciences, Inc., Hopkinton, MA, USA), with an open emission filter, binning of 4, and f-stop 1, and a 1-min exposure time. The resultant photons emitted from the live cells were quantified using Living Image® software (version 4.3, Caliper Life Sciences, Inc.). Monitoring bioluminescence allows assessment of the kinetics of cellular viability as there is a tight correlation between photon count imaging and viable counts (Kadurugamuwa et al., [2003]).

[8] = tested on: Gentamicin resistant P. aeruginosa from passage 30; settings: gentamicin resistant P. aeruginosa from passage 30 (gentamicin MIC 512 μg/mL)
Source text: (§3) The development of resistance was confirmed if the microorganism started growing at continuously higher concentrations. […] Evaluations were done in duplicate.

[9] = tested on: clindamycin resistant S. aureus from passage 30
Source text: as §3

[10] = tested on: mature (120 h) MRSA ATCC 1556 biofilm; type: cell-based, Staphylococcus aureus; settings: mature (120 h) MRSA biofilm, 16 h treatment, CFU count, three technical replicates
[11] = tested on: P. aeruginosa P14 biofilm; type: cell-based, Pseudomonas aeruginosa; settings: CFU count

CC[C@H](C)[C@@H]1NC(=O)CNC(=O)[C@H](CCCCN)NC(=O)[C@H](Cc2ccc(O)cc2)NC(=O)[C@@H]2CSSC[C@H](NC1=O)C(=O)N[C@@H](Cc1ccccc1)C(=O)N[C@@H](CCCCN)C(=O)N[C@@H](CCCCN)C(=O)N[C@H](C(=O)N[C@@H](CCCCN)C(N)=O)CSSC[C@H](NC(=O)[C@H](Cc1ccccc1)NC(=O)[C@@H](N)CCCNC(=N)N)C(=O)N[C@@H](Cc1c[nH]c3ccccc13)C(=O)N[C@@H](CCCCN)C(=O)N[C@@H](C(C)C)C(=O)N2 [RP557] (H-RFCWKVCYKGICFKKCK-NH2; disulfide 3-16, 7-12)
Minimum Inhibitory Concentration (MIC) [1]: 4.0 [8] μM | Minimum Inhibitory Concentration (MIC) [2]: 2.0 [4] μM | Minimum Inhibitory Concentration (MIC) [3]: 2.0 [4] μM | Minimum Inhibitory Concentration (MIC) [4]: 2.0 [4] μM | Minimum Inhibitory Concentration (MIC) [5]: 4.0 [8] μM | Minimum Inhibitory Concentration (MIC) [6]: 2.0 [4] μM | Keratinocyte cell killing ([7]; 8 h incubation): no cell killing observed | Keratinocyte viability ([7]; 8 h): greater than 80% | MIC [8]: 4 µg/mL (≈ 1.87 µM) | MIC [9]: 2 µg/mL (≈ 0.936 µM) | EC90 (concentration to reduce biofilm by 90%) [10]: 2 µg/mL (≈ 0.936 µM) | EC50, biofilm [11]: 32 µg/mL (≈ 15 µM)
